System: 485176-168-R4-J1-PDC complex spheroid growth
Assay: Anticancer human tumor 485176-168-R4-J1-PDC patient-derived pancreatic adenocarcinoma cell line growth inhibition [RAS]
Settings: for viability, T/C: stronger effect = lower value
In short: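 Agents were tested in combination matrices in half-log decrements from a top concentration at or near clinical Cmax (10 microM if undetermined). Targets were multi-cell spheroids of tumour lines plus HUVEC and MSC stromal cells.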

[1] = curve of first compound, second compound 0.000949 µM
[2] = curve of first compound, second compound 0.003 µM
[3] = curve of first compound, second compound 0.00949 µM
[4] = curve of first compound, second compound 0.03 µM
[5] = curve of first compound, second compound 0.0949 µM
[6] = curve of first compound, second compound 0.3 µM
[7] = second compound 0.000949 µM, first compound 0.0316 µM
[8] = second compound 0.000949 µM, first compound 0.1 µM
[9] = second compound 0.000949 µM, first compound 0.316 µM
[10] = second compound 0.000949 µM, first compound 1 µM
[11] = second compound 0.000949 µM, first compound 3.16 µM
[12] = second compound 0.000949 µM, first compound 10 µM
[13] = second compound 0.003 µM, first compound 0.0316 µM
[14] = second compound 0.003 µM, first compound 0.1 µM
[15] = second compound 0.003 µM, first compound 0.316 µM
[16] = second compound 0.003 µM, first compound 1 µM
[17] = second compound 0.003 µM, first compound 3.16 µM
[18] = second compound 0.003 µM, first compound 10 µM
[19] = second compound 0.00949 µM, first compound 0.0316 µM
[20] = second compound 0.00949 µM, first compound 0.1 µM
[21] = second compound 0.00949 µM, first compound 0.316 µM
[22] = second compound 0.00949 µM, first compound 1 µM
[23] = second compound 0.00949 µM, first compound 3.16 µM
[24] = second compound 0.00949 µM, first compound 10 µM
[25] = second compound 0.03 µM, first compound 0.0316 µM
[26] = second compound 0.03 µM, first compound 0.1 µM
[27] = second compound 0.03 µM, first compound 0.316 µM
[28] = second compound 0.03 µM, first compound 1 µM
[29] = second compound 0.03 µM, first compound 3.16 µM
[30] = second compound 0.03 µM, first compound 10 µM
[31] = second compound 0.0949 µM, first compound 0.0316 µM
[32] = second compound 0.0949 µM, first compound 0.1 µM
[33] = second compound 0.0949 µM, first compound 0.316 µM
[34] = second compound 0.0949 µM, first compound 1 µM
[35] = second compound 0.0949 µM, first compound 3.16 µM
[36] = second compound 0.0949 µM, first compound 10 µM
[37] = second compound 0.3 µM, first compound 0.0316 µM
[38] = second compound 0.3 µM, first compound 0.1 µM
[39] = second compound 0.3 µM, first compound 0.316 µM
[40] = second compound 0.3 µM, first compound 1 µM
[41] = second compound 0.3 µM, first compound 3.16 µM
[42] = second compound 0.3 µM, first compound 10 µM
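Also: spheroids exposed to compounds for seven days before readout.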
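For viability, T/C in this document: luminescence viability expressed relative to DMSO vehicle wells set as 100%.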

Compound CC(C)NCC(C(=O)N1CCN(c2ncnc3c2C(C)CC3O)CC1)c1ccc(Cl)cc1 (stereo not drawn) + CCn1c(-c2cccnc2C(C)OC)c2c3cc(ccc31)N1CCOC(CC(NC(=O)C(C(C)C)N(C)C(=O)C3(F)CCN(C(=O)C#CC(C)(C)N(C)C)CC3)C(=O)N3CCCC(N3)C(=O)OCC(C)(C)C2)C1 has an IC50 [1] of 2.21 µM, an IC50 [2] of 1.7 µM and an IC50 [3] of 1.25 µM. It also gave an IC50 [4] of 1.18 µM, an IC50 [5] of 1.29 µM and an IC50 [6] of 0.51 µM. For the same compound, the viability, T/C [7] was 98.8%, the viability, T/C [8] was 86% and the viability, T/C [9] was 79.7%. The viability, T/C [10] was 60%, the viability, T/C [11] was 44.9% and the viability, T/C [12] was 30%. It also gave a viability, T/C [13] of 98.4%, a viability, T/C [14] of 91% and a viability, T/C [15] of 76.7%. It also gave a viability, T/C [16] of 59.1%, a viability, T/C [17] of 39.6% and a viability, T/C [18] of 28.9%. The viability, T/C [19] was 91.8%, the viability, T/C [20] was 103% and the viability, T/C [21] was 73%. It also gave a viability, T/C [22] of 52.6%, a viability, T/C [23] of 45.4% and a viability, T/C [24] of 31.2%. For the same compound, the viability, T/C [25] was 84.5%, the viability, T/C [26] was 91.1% and the viability, T/C [27] was 74.1%. For the same compound, the viability, T/C [28] was 53.7%, the viability, T/C [29] was 34.7% and the viability, T/C [30] was 32.4%. The viability, T/C [31] was 94%, the viability, T/C [32] was 90.7% and the viability, T/C [33] was 78.7%. It also gave a viability, T/C [34] of 50.4%, a viability, T/C [35] of 40.9% and a viability, T/C [36] of 26.9%. For the same compound, the viability, T/C [37] was 73.6%, the viability, T/C [38] was 81% and the viability, T/C [39] was 51.7%. It also gave a viability, T/C [40] of 40.6%, a viability, T/C [41] of 27.3% and a viability, T/C [42] of 17.6%.

With CC1(O)CCCC1n1c(=O)c(C(F)F)cc2cnc(NC3CCN(S(C)(=O)=O)CC3)nc21 (stereo not drawn) the viability, T/C (compound 0.0316 µM) was 102% [middle of 4 runs], the viability, T/C (compound 0.1 µM) was 77.6% [middle of 4 runs] and the viability, T/C (compound 0.316 µM) was 70.4% [middle of 4 runs]. For the same compound, the viability, T/C (compound 1 µM) was 72.5% [middle of 4 runs], the viability, T/C (compound 3.16 µM) was 57.5% [middle of 4 runs] and the viability, T/C (compound 10 µM) was 2.58% [middle of 4 runs]. For the same compound, the IC50 (curve of compound) was 2.72 µM [middle of 4 runs].

For CC(C)n1nc(-c2ccc3oc(N)nc3c2)c2c(N)ncnc21 + C#Cc1c(F)ccc2cc(O)cc(-c3ncc4c(N5CC6CCC(C5)N6)nc(OCC56CCCN5CC(F)C6)nc4c3F)c12, the IC50 (curve of first compound, second compound 0.0316 µM) was 0.0318 µM, the IC50 (curve of first compound, second compound 0.1 µM) was 0.019 µM and the IC50 (curve of first compound, second compound 0.316 µM) was 0.0346 µM. For the same compound, the IC50 (curve of first compound, second compound 1 µM) was 0.025 µM, the IC50 (curve of first compound, second compound 3.16 µM) was 0.0221 µM and the IC50 (curve of first compound, second compound 10 µM) was 0.0233 µM. For the same compound, the viability, T/C (second compound 0.0316 µM, first compound 0.000316 µM) was 100%, the viability, T/C (second compound 0.0316 µM, first compound 0.001 µM) was 106% and the viability, T/C (second compound 0.0316 µM, first compound 0.00316 µM) was 88.6%. The viability, T/C (second compound 0.0316 µM, first compound 0.01 µM) was 82.3%, the viability, T/C (second compound 0.0316 µM, first compound 0.0316 µM) was 49% and the viability, T/C (second compound 0.0316 µM, first compound 0.1 µM) was 19.8%. For the same compound, the viability, T/C (second compound 0.1 µM, first compound 0.000316 µM) was 96.2%, the viability, T/C (second compound 0.1 µM, first compound 0.001 µM) was 107% and the viability, T/C (second compound 0.1 µM, first compound 0.00316 µM) was 65.4%. For the same compound, the viability, T/C (second compound 0.1 µM, first compound 0.01 µM) was 69.2%, the viability, T/C (second compound 0.1 µM, first compound 0.0316 µM) was 39% and the viability, T/C (second compound 0.1 µM, first compound 0.1 µM) was 23.7%. For the same compound, the viability, T/C (second compound 0.316 µM, first compound 0.000316 µM) was 98.3%, the viability, T/C (second compound 0.316 µM, first compound 0.001 µM) was 78.5% and the viability, T/C (second compound 0.316 µM, first compound 0.00316 µM) was 82.5%. It also gave a viability, T/C (second compound 0.316 µM, first compound 0.01 µM) of 63.1%, a viability, T/C (second compound 0.316 µM, first compound 0.0316 µM) of 61.7% and a viability, T/C (second compound 0.316 µM, first compound 0.1 µM) of 20.1%. It also gave a viability, T/C (second compound 1 µM, first compound 0.000316 µM) of 88%, a viability, T/C (second compound 1 µM, first compound 0.001 µM) of 91.5% and a viability, T/C (second compound 1 µM, first compound 0.00316 µM) of 86.4%. The viability, T/C (second compound 1 µM, first compound 0.01 µM) was 55.9%, the viability, T/C (second compound 1 µM, first compound 0.0316 µM) was 51.9% and the viability, T/C (second compound 1 µM, first compound 0.1 µM) was 22%. The viability, T/C (second compound 3.16 µM, first compound 0.000316 µM) was 91.9%, the viability, T/C (second compound 3.16 µM, first compound 0.001 µM) was 87.7% and the viability, T/C (second compound 3.16 µM, first compound 0.00316 µM) was 78.4%. For the same compound, the viability, T/C (second compound 3.16 µM, first compound 0.01 µM) was 80%, the viability, T/C (second compound 3.16 µM, first compound 0.0316 µM) was 36.6% and the viability, T/C (second compound 3.16 µM, first compound 0.1 µM) was 21.5%. The viability, T/C (second compound 10 µM, first compound 0.000316 µM) was 92.3%, the viability, T/C (second compound 10 µM, first compound 0.001 µM) was 81.1% and the viability, T/C (second compound 10 µM, first compound 0.00316 µM) was 80.8%. The viability, T/C (second compound 10 µM, first compound 0.01 µM) was 68.9%, the viability, T/C (second compound 10 µM, first compound 0.0316 µM) was 42.5% and the viability, T/C (second compound 10 µM, first compound 0.1 µM) was 20.9%.

In the case of NC1c2ccccc2OC12CCN(c1cnc3c(N4CCCc5ncccc54)n[nH]c3n1)CC2 (stereo not drawn) + CCn1c(-c2cc(N3CCN(C)CC3)cnc2C(C)OC)c2c3cc(ccc31)-c1csc(n1)CC(NC(=O)C1CC1C)C(=O)N1CCCC(N1)C(=O)OCC(C)(C)C2, the IC50 [1] is reported as > 10 µM, the IC50 [2] is reported as > 10 µM and the IC50 [3] is reported as > 10 µM. For the same compound, the IC50 [4] was > 10 µM, the IC50 [5] was > 10 µM and the IC50 [6] was > 10 µM. It also gave a viability, T/C [7] of 86.4%, a viability, T/C [8] of 88.8% and a viability, T/C [9] of 97.4%. It also gave a viability, T/C [10] of 85%, a viability, T/C [11] of 89.2% and a viability, T/C [12] of 79.1%. It also gave a viability, T/C [13] of 93.1%, a viability, T/C [14] of 80.9% and a viability, T/C [15] of 76.7%. For the same compound, the viability, T/C [16] was 97.9%, the viability, T/C [17] was 91.8% and the viability, T/C [18] was 81.4%. The viability, T/C [19] was 81.7%, the viability, T/C [20] was 93.2% and the viability, T/C [21] was 76.2%. The viability, T/C [22] was 81.1%, the viability, T/C [23] was 81.9% and the viability, T/C [24] was 67.2%. The viability, T/C [25] was 83%, the viability, T/C [26] was 98% and the viability, T/C [27] was 83.4%. For the same compound, the viability, T/C [28] was 104%, the viability, T/C [29] was 91% and the viability, T/C [30] was 79%. For the same compound, the viability, T/C [31] was 80.8%, the viability, T/C [32] was 82% and the viability, T/C [33] was 76.9%. The viability, T/C [34] was 85.2%, the viability, T/C [35] was 100% and the viability, T/C [36] was 76.9%. For the same compound, the viability, T/C [37] was 87.4%, the viability, T/C [38] was 86.1% and the viability, T/C [39] was 69%. For the same compound, the viability, T/C [40] was 80.1%, the viability, T/C [41] was 83.1% and the viability, T/C [42] was 75.1%.
